What follows are compounds tested on M-NFS-60 cells (assay: M-NFS-60 cell in vitro assay (CCK, 48 h, M-CSF factor medium)). Settings: M-NFS-60 cells; read-out: M-NFS-60cellassay IC50.
Assay type: cell-based
Outline: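 Mouse M-NFS-60 cells (2000/well) in RPMI-1640 with 10% serum and M-CSF (25 ng/ml) were pre-incubated 4 h, then exposed to DMSO-diluted compound gradients for 48 h at 5% CO2. Viability read by CCK, 2 h, OD 450 nm; IC50 from curve fitting.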

| Structure (SMILES) | IC50 [nM] |
| --- | --- |
| Cc1cccc(C(=O)Nc2cccc3c2CC[C@@H]3Nc2cncc(N(C)CCN(C)C)n2)c1 [Compound 32, (S)—N-(1-((6-((2-(dimethylamino)ethyl)(methyl)amino)pyrazin-2-yl)amino)-2,3-dihydro-1H-inden-4-yl)-3-methylbenzamide] | > 500 |
| Cn1cc2ncc(N[C@H]3CCc4c(CNc5cccc(C6CC6)c5)cccc43)cc2n1 [Compound 96a] | 50 to 200 |
| CC(C)NC(=O)c1cccc2c1CC[C@@H]2Nc1cncc(-c2cnn(C)c2)n1 [Compound 27e] | 50 to 200 |
| CN(C)Cc1ccc(NC(=O)c2cccc3c2CC[C@@H]3Nc2cncc(-c3cnn(C)c3)c2)cc1 [Compound 14au] | 50 to 200 |
| CN(C)Cc1ccc(NC(=O)c2cccc3c2CC[C@@H]3N(C)c2cnc3cnn(C)c3c2)cc1 [Compound 80g] | 200 to 500 |
| CN1CCc2nc(NC(=O)c3cccc4c3CC[C@@H]4N(C)c3cnc4cnn(C)c4c3)sc2C1 [Compound 80w] | 50 to 200 |
| Cc1cccc(C(=O)Nc2cc(F)cc3c2CC[C@@H]3Nc2cncc(-c3cnn(C)c3)c2)c1 [Compound 46a] | < 50 |
| Cn1cc(-c2cncc(N[C@H]3CCc4c(C(=O)Nc5ccc(Cl)cc5)cccc43)c2)cn1 [Compound 14an] | < 50 |
| CC(C)(C)c1ccnc(Nc2cccc3c2CC[C@@H]3Nc2cncc(Cl)c2)n1 [Compound 42h] | > 500 |
| CN1Cc2ccc(NC(=O)c3cccc4c3CC[C@@H]4Oc3cncc(-c4cnn(C)c4)c3)cc2C1 [Compound 19v] | 200 to 500 |
| Cc1cccc(C(=O)Nc2cccc3c2CC[C@@H]3Nc2cncc(-c3cnn(C)c3)n2)c1 [Compound 25a] | < 50 |
| Cn1cc2ncc(N[C@H]3CCc4c(Nc5cc(C6(C)CCCC6)on5)cccc43)cc2n1 [Compound 91l] | < 50 |
| Cn1cc(-c2cncc(NC3CCc4c(NC(=O)c5cccc(C6CC6)c5)ccnc43)c2)cn1 (stereo not shown) [Compound 44e] | 200 to 500 |
| O=C(Nc1cccc(C2CC2)c1)c1cccc2c1CC[C@@H]2Nc1cncc(Br)c1 [Compound 10, (S)-1-((5-bromopyridin-3-yl)amino)-N-(3-cyclopropylphenyl)-2,3-dihydro-1H-indene-4-carboxamide] | 50 to 200 |
| Cn1cc2ncc(N[C@H]3CCc4c(Nc5noc(C(C)(C)CF)n5)cccc43)cc2n1 [Compound 93o] | < 50 |
| Cc1cccc(NC(=O)c2cccc3c2CC[C@@H]3Nc2cnc3cn(C)nc3c2)c1F [Compound 74i] | < 50 |
| Cn1cc(-c2cnc(N)c(O[C@H]3CCc4c(NC(=O)c5cccc(CN6CCCCC6)c5)cccc43)c2)cn1 [Compound 3h] | > 500 |
| CC(C)(C)c1cc(Nc2cccc3c2CC[C@@H]3Nc2cncc(Cl)c2)n[nH]1 [Compound 42e] | > 500 |
| CN(C)Cc1cccc(NC(=O)c2cccc3c2CC[C@@H]3N(C)c2cncc(-c3cnn(C)c3)c2)c1 [Compound 22d] | 50 to 200 |
| Cn1cc(-c2cncc(N[C@H]3CCc4c(Nc5cc(C(C)(C)C)on5)ccc(F)c43)c2)cn1 [Compound 42s] | < 50 |

| Structure (SMILES) | IC50 [nM] |
| --- | --- |
| Cc1cccc(C(=O)Nc2ccc(F)c3c2CC[C@@H]3Nc2cncc(-c3cnn(C)c3)c2)c1 [Compound 45, (S)—N-(7-fluoro-1-((5-(1-methyl-1H-pyrazol-4-yl)pyridin-3-yl)amino)-2,3-dihydro-1H-inden-4-yl)-3-methylbenzamide] | < 50 |
| Cn1cc(-c2cncc(N[C@H]3CCc4c(NC5CCCCC5)cccc43)n2)cn1 [Compound 60a] | > 500 |
| O=C(Nc1cccc2c1CC[C@@H]2Nc1cncc(Br)c1)c1cccc(C2CC2)c1 [Compound 11, (S)—N-(1-((5-bromopyridin-3-yl)amino)-2,3-dihydro-1H-inden-4-yl)-3-cyclopropylbenzamide] | 50 to 200 |
| Cc1ccc(NC(=O)c2cccc(C3CC3)c2)c2c1[C@@H](Oc1cnc3cnn(C)c3c1)CC2 [Compound 78b] | > 500 |
| Cn1cc2ncc(N[C@H]3CCc4c(Nc5noc(C6CCCC6)n5)cccc43)cc2n1 [Compound 93k] | < 50 |
| Cn1ncc2ncc(O[C@H]3CCc4c(Nc5cc(C(C)(C)C)on5)cccc43)cc21 [Compound 95, (S)-5-(tert-butyl)-N-(1-((1-methyl-1H-pyrazolo[4,3-b]pyridin-6-yl)oxy)-2,3-dihydro-1H-inden-4-yl) isoxazol-3-amine] | 200 to 500 |
| Cn1cc(-c2cncc(NC3CC(O)c4c(NC(=O)c5ccc(C(F)(F)F)cc5)cccc43)c2)cn1 (stereo not shown) [Compound 71a, N-(3-hydroxy-1-((5-(1-methyl-1H-pyrazol-4-yl)pyridin-3-yl)amino)-2,3-dihydro-1H-inden-4-yl)-4-(trifluoromethyl)benzamide] | 50 to 200 |
| Cn1cc(-c2cncc(N[C@H]3CCc4c(CNc5ccc(C(F)(F)F)cc5)cccc43)c2)cn1 [Compound 58, (S)-5-(1-methyl-1H-pyrazol-4-yl)-N-(4-(((4-(trifluoromethyl)phenyl)amino)methyl)-2,3-dihydro-1H-inden-1-yl) pyridin-3-amine] | > 500 |
| CN(C)Cc1cccc(NC(=O)c2cccc3c2CC[C@@H]3Oc2cncc(-c3cnn(C)c3)c2)c1 [Compound 19e] | 50 to 200 |
| Cc1cc(NC(=O)c2cccc3c2CC[C@@H]3Oc2cncc(-c3cnn(C)c3)c2)ccn1 [Compound 19p] | < 50 |
| CC(C)(C)c1nnc(Nc2cccc3c2CC[C@@H]3Nc2cncc(Cl)c2)s1 [Compound 42i] | 50 to 200 |
| Cc1cccc(NC(=O)c2cccc3c2CC[C@@H]3Nc2cncc(N3CCN(C)CC3)n2)c1 [Compound 34, (S)-1-((6-(4-methylpiperazin-1-yl)pyrazin-2-yl)amino)-N-(m-tolyl)-2,3-dihydro-1H-indene-4-carboxamide] | 50 to 200 |
| Cc1ncc(-c2cnn(C)c2)cc1O[C@H]1CCc2c(C(=O)Nc3ccc(C(F)(F)F)cc3)cccc21 [Compound 19w] | 200 to 500 |
| Cn1ncc2ncc(N[C@H]3CCc4c(Nc5ncc(C(C)(C)C)s5)cccc43)cc21 [Compound 91f] | < 50 |
| Cn1ncc2ncc(N[C@H]3CCc4c(C(=O)Nc5cccc(C6CC6)c5)cccc43)nc21 [Compound 88, (S)—N-(3-cyclopropylphenyl)-1-((1-methyl-1H-pyrazolo[3,4-b]pyrazin-6-yl)amino)-2,3-dihydro-1H-indene-4-carboxamide] | < 50 |
| Cn1cc(-c2cnc(N)c(O[C@H]3CCc4c(Nc5cc(C(C)(C)C)on5)cccc43)c2)cn1 [Compound 68, (S)—N-(1-((2-amino-5-(1-methyl-1H-pyrazol-4-yl)pyridin-3-yl)oxy)-2,3-dihydro-1H-inden-4-yl)-5-(tert-butyl) isoxazol-3-amine] | 200 to 500 |
| CN1CCc2cc(NC(=O)c3cccc4c3CC[C@@H]4Nc3cncc(-c4cnn(C)c4)c3)ccc2C1 [Compound 14ay] | 50 to 200 |
| Cn1ncc2ncc(O[C@H]3CCc4c(C(=O)Nc5nn(C)c6ccccc56)cccc43)cc21 [Compound 76ao] | < 50 |
| Cc1cccc(C(=O)Nc2cccc3c2CCC3Nc2cncc(-c3cnn(C)c3)c2)c1 (stereo not shown) [Compound 8, 3-methyl-N-(1-((5-(1-methyl-1H-pyrazol-4-yl)pyridin-3-yl)amino)-2,3-dihydro-1H-inden-4-yl)benzamide] | < 50 |

Same assay, conditions: read-out: M-NFS-60cellassay IC50(nM)

| Structure (SMILES) | IC50 [nM] |
| --- | --- |
| Cc1cccc(NC(=O)c2cccc3c2CC[C@@H]3Nc2cncc(C3=CCN(C)CC3)n2)c1 [Compound 33, (S)-1-((6-(1-methyl-1,2,3,6-tetrahydropyridin-4-yl)pyrazin-2-yl)amino)-N-(m-tolyl)-2,3-dihydro-1H-indene-4-carboxamide] | 50 to 200 |

— US20260125359A1, “HETEROARYL COMPOUNDS AS MULTI-TARGET PROTEIN KINASE INHIBITORS” (FUJIAN HAIXI PHARMACEUTICALS CO., LTD., priority 2023, published 2026)
